Assay results: PubChem BioAssay AID2060897 (Molecular Pharmacology Branch, DTP, NCI, 2025)

Tested on: 966289-007-R4-J1-PDC complex spheroid viability
Test: Anticancer human tumor 966289-007-R4-J1-PDC patient-derived pancreatic adenocarcinoma cell line growth inhibition [RAS]
Details: for IC50: curve of first compound; for viability, T/C: stronger effect = lower value
Method in brief: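 Multi-cell-type spheroids: tumor cells plus HUVEC endothelial cells and mesenchymal stem cells. RAS-pathway inhibitors were combined with targeted agents, each dosed in half-log steps down from clinical Cmax, or from 10 microM when Cmax was unknown.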

[1] = second compound 0.000949 µM, first compound 0.0316 µM
[2] = second compound 0.000949 µM, first compound 0.1 µM
[3] = second compound 0.000949 µM, first compound 0.316 µM
[4] = second compound 0.000949 µM, first compound 1 µM
[5] = second compound 0.003 µM, first compound 0.0316 µM
[6] = second compound 0.003 µM, first compound 0.1 µM
[7] = second compound 0.003 µM, first compound 0.316 µM
[8] = second compound 0.003 µM, first compound 1 µM
[9] = second compound 0.00949 µM, first compound 0.0316 µM
[10] = second compound 0.00949 µM, first compound 0.1 µM
[11] = second compound 0.00949 µM, first compound 0.316 µM
[12] = second compound 0.00949 µM, first compound 1 µM
[13] = second compound 0.03 µM, first compound 0.0316 µM
[14] = second compound 0.03 µM, first compound 0.1 µM
[15] = second compound 0.03 µM, first compound 0.316 µM
[16] = second compound 0.03 µM, first compound 1 µM
[17] = second compound 0.0949 µM, first compound 0.0316 µM
[18] = second compound 0.0949 µM, first compound 0.1 µM
[19] = second compound 0.0949 µM, first compound 0.316 µM
[20] = second compound 0.0949 µM, first compound 1 µM
[21] = second compound 0.3 µM, first compound 0.0316 µM
[22] = second compound 0.3 µM, first compound 0.1 µM
[23] = second compound 0.3 µM, first compound 0.316 µM
[24] = second compound 0.3 µM, first compound 1 µM
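Note: spheroids exposed to agents for one week before readout.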
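Throughout, for viability, T/C: percent viability relative to DMSO vehicle control wells as 100%.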

Work on CCC(CC)c1cc(NC2CCC(N)C2)n2nccc2n1 (centres undefined) + CCn1c(-c2cc(N3CCN(C)CC3)cnc2C(C)OC)c2c3cc(ccc31)-c1csc(n1)CC(NC(=O)C1CC1C)C(=O)N1CCCC(N1)C(=O)OCC(C)(C)C2 yielded an IC50 (second compound 0.000949 µM) of 1.43 µM, an IC50 (second compound 0.003 µM) of 1.55 µM and an IC50 (second compound 0.00949 µM) of 1.79 µM. It also gave an IC50 (second compound 0.03 µM) of 1.66 µM, an IC50 (second compound 0.0949 µM) of 1.85 µM and an IC50 (second compound 0.3 µM) of 1.86 µM. For the same molecule, the viability, T/C [1] was 111%, the viability, T/C [2] was 89.1% and the viability, T/C [3] was 99.3%. For the same molecule, the viability, T/C [4] was 71.5%, the viability, T/C (second compound 0.000949 µM, first compound 3.16 µM) was 1.75% and the viability, T/C (second compound 0.000949 µM, first compound 10 µM) was 1.38%. The viability, T/C [5] was 72.2%, the viability, T/C [6] was 98.3% and the viability, T/C [7] was 89.2%. For the same molecule, the viability, T/C [8] was 79.2%, the viability, T/C (second compound 0.003 µM, first compound 3.16 µM) was 2.05% and the viability, T/C (second compound 0.003 µM, first compound 10 µM) was 1.33%. It also gave a viability, T/C [9] of 81.7%, a viability, T/C [10] of 103% and a viability, T/C [11] of 81.9%. For the same molecule, the viability, T/C [12] was 131%, the viability, T/C (second compound 0.00949 µM, first compound 3.16 µM) was 1.93% and the viability, T/C (second compound 0.00949 µM, first compound 10 µM) was 1.58%. For the same molecule, the viability, T/C [13] was 72.3%, the viability, T/C [14] was 86.8% and the viability, T/C [15] was 92.5%. The viability, T/C [16] was 98.9%, the viability, T/C (second compound 0.03 µM, first compound 3.16 µM) was 1.68% and the viability, T/C (second compound 0.03 µM, first compound 10 µM) was 2.28%. For the same molecule, the viability, T/C [17] was 86.2%, the viability, T/C [18] was 111% and the viability, T/C [19] was 107%. The viability, T/C [20] was 119%, the viability, T/C (second compound 0.0949 µM, first compound 3.16 µM) was 1.88% and the viability, T/C (second compound 0.0949 µM, first compound 10 µM) was 1.55%. For the same molecule, the viability, T/C [21] was 75.7%, the viability, T/C [22] was 116% and the viability, T/C [23] was 116%. The viability, T/C [24] was 117%, the viability, T/C (second compound 0.3 µM, first compound 3.16 µM) was 2.08% and the viability, T/C (second compound 0.3 µM, first compound 10 µM) was 1.97%.
CCN1CCN(Cc2ccc(Nc3ncc(F)c(-c4cc(F)c5nc(C)n(C(C)C)c5c4)n3)nc2)CC1 + CCn1c(-c2cc(N3CCN(C)CC3)cnc2C(C)OC)c2c3cc(ccc31)-c1csc(n1)CC(NC(=O)C1CC1C)C(=O)N1CCCC(N1)C(=O)OCC(C)(C)C2 showed an IC50 (second compound 0.000949 µM) greater than 1 µM, an IC50 (second compound 0.003 µM) greater than 1 µM and an IC50 (second compound 0.00949 µM) greater than 1 µM. The IC50 (second compound 0.03 µM) was greater than 1 µM, the IC50 (second compound 0.0949 µM) was greater than 1 µM and the IC50 (second compound 0.3 µM) was greater than 1 µM. The viability, T/C (second compound 0.000949 µM, first compound 0.00316 µM) was 122%, the viability, T/C (second compound 0.000949 µM, first compound 0.01 µM) was 116% and the viability, T/C [1] was 130%. It also gave a viability, T/C [2] of 86.2%, a viability, T/C [3] of 92.2% and a viability, T/C [4] of 89.8%. It also gave a viability, T/C (second compound 0.003 µM, first compound 0.00316 µM) of 109%, a viability, T/C (second compound 0.003 µM, first compound 0.01 µM) of 121% and a viability, T/C [5] of 112%. It also gave a viability, T/C [6] of 95.7%, a viability, T/C [7] of 114% and a viability, T/C [8] of 85%. The viability, T/C (second compound 0.00949 µM, first compound 0.00316 µM) was 93.9%, the viability, T/C (second compound 0.00949 µM, first compound 0.01 µM) was 116% and the viability, T/C [9] was 120%. For the same molecule, the viability, T/C [10] was 97.7%, the viability, T/C [11] was 98.7% and the viability, T/C [12] was 96.7%. It also gave a viability, T/C (second compound 0.03 µM, first compound 0.00316 µM) of 85.3%, a viability, T/C (second compound 0.03 µM, first compound 0.01 µM) of 105% and a viability, T/C [13] of 129%. The viability, T/C [14] was 95%, the viability, T/C [15] was 97.8% and the viability, T/C [16] was 85.1%. The viability, T/C (second compound 0.0949 µM, first compound 0.00316 µM) was 129%, the viability, T/C (second compound 0.0949 µM, first compound 0.01 µM) was 100% and the viability, T/C [17] was 115%. For the same molecule, the viability, T/C [18] was 95.9%, the viability, T/C [19] was 86.9% and the viability, T/C [20] was 88.6%. For the same molecule, the viability, T/C (second compound 0.3 µM, first compound 0.00316 µM) was 101%, the viability, T/C (second compound 0.3 µM, first compound 0.01 µM) was 89.8% and the viability, T/C [21] was 114%. For the same molecule, the viability, T/C [22] was 111%, the viability, T/C [23] was 97.9% and the viability, T/C [24] was 79%.
